# Measured values reported in article PMC10447463, “Data-mining unveils structure–property–activity correlation of viral infectivity enhancing self-assembling peptides” (Nature Communications, 2023).
# Where two headings read alike, the source gives them in different places.
# Legend:
# [1] = tested on: HIV-1 infection of TZM-bl cells; assay: HIV-1 infectivity enhancement assay, β-galactosidase luminescence; assay type: cell-based; details: for Log10 of Rel to EFC (Feb2021) / Absolute Infectivity / RLU /s (Feb2021) / Rel-to EFC (Feb-2021) / n-fold to virus (Feb2021): Feb2021; for Log10 Inf. rel. to EF-C: log10 of HIV-1 infection of TZM-bl cells relative to EF-C, Fig S15 source data; for Log10 Infection Rel EF-C: HIV-1 infection of TZM-bl cells
# [2] = β-sheet content by ATR-FT-IR; assay type: physicochemical; details: for FTIR ß-sheet content/ %: ATR-FT-IR
# Procedure, shortened: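 Spectra: 64 scans, 2 cm^-1, lyophilized PNF (1 mg/mL source). CR = 100 − 100 × filtrate/original fluorescamine signal; triplicate, ± SD.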
# [3] = Zeta-potential measurement; assay type: physicochemical; details: for Zeta-pot. / mV: zeta potential of peptide, Fig S15 source data
# Procedure, shortened: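 PBS pH 7.4, 1 mg/mL peptide (DMSO stock), 1 d RT aggregation; diluted in 1 mM KCl pre-read; mobility → zeta (Smoluchowski); n = 3, 2 expts averaged.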
# [4] = Turbidity, derived count rate of scattered light; assay type: physicochemical; details: for Zeta Count Rate / kcps: derived count rate of scattered light
# Procedure, shortened: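 One-day room-temperature aggregation at 1 mg/mL in PBS (pH 7.4) preceded measurement; samples then went into 1 mM KCl. Triplicates per sample, two independent experiments averaged.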
# [5] = Log10 of infectivity relative to EF-C
# [6] = figures match the 1.3 µM column
# [7] = infectivity enhancement relative to EF-C
# [8] = infectivity relative to virus only
# [9] = n-fold infectivity relative to EF-C
# [10] = infectivity class (low / medium / high) of each library peptide, main list in c1-c6, same classes repeated in sub-lists of sequences containing the hydrophobicity/charge patterns P+,H0,P+,H0,P0,H0,P0, P+,H0,P0,H0,P0,H0,P0, P+,H0,P0,H0
# [11] = category derived from the zeta potential
# [12] = category 1 or 0 derived from the count rate, key not given
# [13] = mean, std deviation in next column
Substance,"Log10 of Rel to EFC (Feb2021) [1, 5]","Absolute Infectivity / RLU /s (Feb2021) [1, 6]","Rel-to EFC (Feb-2021) [1, 7]","n-fold to virus (Feb2021) [1, 8]","Rel-to EFC (Feb-2021) [1, 9]","infectivity [1, 10]",Log10 Inf. rel. to EF-C ([1]; asymmetric std dev errors),FTIR ß-sheet content/ % [2],Zeta Pot. / mV [3],Zeta category ( +1 = if > 4 mV;-1 = if < -4 mV; 0 = -4mV to 4 mV) [3],"Zeta category ( +1 = if > 4 mV;-1 = if < -4 mV; 0 = -4mV to 4 mV) [3, 11]","Zeta Pot. / mV ([3]; mean, Std Zeta in next column)",Zeta-pot. / mV [3],"Zeta Count Rate Category ([4]; category 1 / 0, no key given)","Zeta Count Rate Category [4, 12]",Zeta Count Rate / kcps [4],"Zeta Count Rate / kcps [4, 13]",also measured
KLKLQLL [TG4 / (KM2)],-2.156,163.3 RLU /s,0.006983,0.2934,0.006983,low,-2.156,0%,-4.93 mV,-1 (-1 = if < -4 mV),-1 (-1 = if < -4 mV),-4.93 mV,-4.93 mV,0,0,72.67 kcps,72.67 kcps,"infectivity ([1]; infectivity class (low / medium / high) of the peptide in the sequence-pattern analysis, Fig. S22-A4, class limits not given): low"
KLKQLL,,,,,,,,,,,,,,,,,,"Rel-EFC ([1]; 1.3 µM peptide, infection relative to EF-C (QCKIKQIINMWQ = 1)): 0,01; Log10 Infection Rel EFC ([1]; 1.3 µM peptide, log10 of infection relative to EF-C): -2,13; Log Infectivity ([1]; Fig. S7 panel A (plotted against β-sheet content), Log10 infection relative to EF-C, TZM-bl cells, asymmetric std dev errors): -2.131; Log10 Infection Rel EF-C ([1]; Log10 of infection rate relative to EF-C, Figure 3A source data): -2.13; Log10 Infection Rel EF-C ([1]; infection rate relative to EF-C, log10, data of Figure 2D): -2.131; Log10 Infection Rel EF-C ([1]; infection rate relative to EF-C, log10, source data of Figure 2C): -2.131; b -sheet / % ([2]; Fig. S7 panel A, β-sheet content by ATR-FT-IR): 31.78%; Zeta-Pot. ([3]; zeta potential of peptide assemblies): -8.46; Zeta-Potential / mV ([3]; zeta-potential of peptide, source data of Figure 2C): -5.682 mV; Zeta-Potential / mV ([3]; zeta-potential of the peptide assemblies, mean, Figure 3A source data): -8.46 mV; Log10 Count Rate ([4]; Log10 of derived count rate of scattered light (turbidity)): 2.505; Count Rate / kcps ([4]; derived count rate of scattered light at 633 nm, 173°, from zeta-potential measurement, 0.1 mg/mL in 1 mM KCl after 1 d at 1 mg/mL in PBS, turbidity / microscopic aggregation, mean of triplicate): 320 kcps; Log10 Count Rate ([4]; log10 of derived count rate of scattered light (turbidity)): 2.505; Log10 Count Rate ([4]; turbidity, Log10 of derived count rate of scattered light, Figure 3A source data): 2.505"
KLKQLL [KM27 / psis14],-2.131,196.7 RLU /s,0.00739,0.3105,0.00739,low,-2.131,0%,-8.46 mV,-1 (-1 = if < -4 mV),-1 (-1 = if < -4 mV),-8.46 mV,-8.46 mV,1,1,319.9 kcps,319.9 kcps,
MKFKFQF [DF5 / CK16],,,,,0.06366,low,-1.196,21.97%,,0 (0 = -4mV to 4 mV),,-3.133 mV,-3.133 mV,,,,124 kcps,"n-fold to virus (Feb2021) ([1]; 1.3 µM value relative to virus only (0 µM)): 2.675; Log10 of Rel to EFC (Feb2021) ([1]; log10 of infectivity relative to EF-C): -1.196; Absolute Infectivity / RLU /s (Feb2021) ([1]; unrounded values of the 1.3 µM column): 1427 RLU /s; Zeta Count Rate Category ([4]; category 1/0, no key printed): 1"
